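In this assay, cells in 96-well plates receive the compound at five concentrations for 48 hours. Endpoints are linearly interpolated between the surrounding concentrations. Abbreviation: GI50, concentration required for 50% inhibition of growth.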 Calls of active or inactive are those of the source. Rule as the data show it: active = GI50 up to about 1.1 µM and inactive = higher.
Assays:
Test in all cases: inhibition of tumour cell growth, NCI panel, 48 h
TK-10 = system: TK-10
LOX IMVI = system: LOX IMVI
MDA-N = system: MDA-N
SF-539 = system: SF-539
NCI-H226 = system: NCI-H226
M14 = system: M14
EKVX = system: EKVX
COLO 205 = system: COLO 205
SF-268 = system: SF-268
OVCAR-8 = system: OVCAR-8
Malme-3M = system: Malme-3M
SF-295 = system: SF-295
MDA-MB-231 = system: MDA-MB-231
SK-MEL-2 = system: SK-MEL-2
SN12C = system: SN12C
CAKI-1 = system: CAKI-1
IGROV-1 = system: IGROV-1
DU-145 = system: DU-145
HCT-116 = system: HCT-116
HOP-62 = system: HOP-62

Row | Structure (SMILES) | GI50 (TK-10) | GI50 (LOX IMVI) | GI50 (MDA-N) | GI50 (SF-539) | GI50 (NCI-H226) | GI50 (M14) | GI50 (EKVX) | GI50 (COLO 205) | GI50 (SF-268) | GI50 (OVCAR-8) | GI50 (Malme-3M) | GI50 (SF-295) | GI50 (MDA-MB-231) | GI50 (SK-MEL-2) | GI50 (SN12C) | GI50 (CAKI-1) | GI50 (IGROV-1) | GI50 (DU-145) | GI50 (HCT-116) | GI50 (HOP-62)
1 | COc1cc(OC)cc(-c2nc3cc(F)ccc3s2)c1 | 15.8 µM (inactive) | 53.8 µM (inactive) | > 100 µM (inactive) | 15.8 µM (inactive) | 13.7 µM (inactive) | 37.3 µM (inactive) | 12.1 µM (inactive) | 34.1 µM (inactive) | 13.8 µM (inactive) | 30.8 µM (inactive) | 55 µM (inactive) | 10.6 µM (inactive) | 13.6 µM (inactive) | 23.6 µM (inactive) | 36.4 µM (inactive) | 40.2 µM (inactive) | 12.3 µM (inactive) | 26.1 µM (inactive) | 13.6 µM (inactive) | 
2 | C1=N\CCNCC/N=C/c2ccccc2OCc2cccc(n2)COc2ccccc2/1 | 20.7 µM (inactive) | 5.31 µM (inactive) | 3.18 µM (inactive) | 2.72 µM (inactive) | 26.3 µM (inactive) | 8.02 µM (inactive) | 35.5 µM (inactive) | > 56.8 µM (inactive) | 12.9 µM (inactive) | 9.44 µM (inactive) | 11.8 µM (inactive) | 8.15 µM (inactive) | 22.2 µM (inactive) | > 44.5 µM (inactive) | 13.2 µM (inactive) | 42.8 µM (inactive) | 24.5 µM (inactive) | 26.3 µM (inactive) | 3.57 µM (inactive) | 12.4 µM (inactive)
3 | O=C1OS2(OCc3cccc4cccc2c34)c2ccccc21 (centres undefined) | > 100 µM (inactive) | > 100 µM (inactive) | > 100 µM (inactive) | > 100 µM (inactive) | > 100 µM (inactive) | > 100 µM (inactive) | > 100 µM (inactive) | > 100 µM (inactive) | > 100 µM (inactive) |  | > 100 µM (inactive) | > 100 µM (inactive) | > 100 µM (inactive) | > 100 µM (inactive) | > 100 µM (inactive) | > 100 µM (inactive) | > 100 µM (inactive) | > 100 µM (inactive) | > 100 µM (inactive) | > 100 µM (inactive)
4 | N#C[BH2-][n+]1cn(C2CC(OP(=O)(O)OCC3OC(n4cnc5c(N)ncnc54)CC3O)C(CO)O2)c2nc(N)[nH]c(=O)c21 (centres undefined) | > 100 µM (inactive) | > 100 µM (inactive) | > 100 µM (inactive) | > 100 µM (inactive) | > 100 µM (inactive) |  | > 100 µM (inactive) | > 100 µM (inactive) | > 100 µM (inactive) | > 100 µM (inactive) | > 100 µM (inactive) | > 100 µM (inactive) | > 100 µM (inactive) | > 100 µM (inactive) | > 100 µM (inactive) | > 100 µM (inactive) | > 100 µM (inactive) | > 100 µM (inactive) | > 100 µM (inactive) | > 100 µM (inactive)
5 | CCC1(CC)CC(=NNS(=O)(=O)c2ccc(C)cc2)C1 | > 100 µM (inactive) | > 100 µM (inactive) | > 100 µM (inactive) | > 100 µM (inactive) | > 100 µM (inactive) | > 100 µM (inactive) | > 100 µM (inactive) | > 100 µM (inactive) | > 100 µM (inactive) | > 100 µM (inactive) | > 100 µM (inactive) | > 100 µM (inactive) | > 100 µM (inactive) | > 100 µM (inactive) | > 100 µM (inactive) | > 100 µM (inactive) | > 100 µM (inactive) | > 100 µM (inactive) | > 100 µM (inactive) | 
6 | O=C1CC2(CCN(Cc3ccccc3)CC2)C(=O)N1N1CCCCC1 | > 100 µM (inactive) | > 100 µM (inactive) | > 100 µM (inactive) | > 100 µM (inactive) | > 100 µM (inactive) | > 100 µM (inactive) |  | > 100 µM (inactive) | > 100 µM (inactive) | > 100 µM (inactive) | > 100 µM (inactive) | > 100 µM (inactive) | > 100 µM (inactive) | > 100 µM (inactive) | > 100 µM (inactive) | > 100 µM (inactive) | > 100 µM (inactive) | > 100 µM (inactive) | > 100 µM (inactive) | > 100 µM (inactive)
7 | SC1=Nc2ccccc2-c2nc(-c3cccc(Cl)c3)cc(-c3ccccc3)c2C1 |  | 3.15 µM (inactive) | 3.48 µM (inactive) | 1.69 µM (inactive) | 3.68 µM (inactive) | 4.61 µM (inactive) | 3.54 µM (inactive) | 7.82 µM (inactive) | 3.79 µM (inactive) | 1.07 µM (active) | 4.35 µM (inactive) | 3.37 µM (inactive) | 1.64 µM (inactive) | 5.25 µM (inactive) | 2.08 µM (inactive) | 2 µM (inactive) | 0.678 µM (active) | 5.36 µM (inactive) | 1.64 µM (inactive) | 1.86 µM (inactive)
